Reference: patent US20160354303A1, “Method, Compositions, And Kit For Modulating The Appearance Of Volume On Keratin Surfaces” (ELC MANAGEMENT LLC, priority 2014, published 2016)

Tested on: Human subcutaneous preadipocytes
Assay: Adipocyte differentiation assay: inhibition of adipogenesis, glycerol liberated from triglyceride (Zen-Bio)
Type: cell-based
Details: for adipogenesis: inhibition in presence of 1 uM Rosiglitazone, OD at 540 nm, glycerol liberated from triglyceride, FIGS. 2 and 3
Protocol: Conjugated linoleic acid and resveratrol were tested for their ability to promote the appearance of decreased volume. Cell culture, treatment, and differentiation assay was performed by Zen-Bio, RTF, NC. Human subcutaneous preadipocytes, lot number: were cultured in 96-well plates. The donor information is as follows: • Lot #: L061103 • […] • […] • B.M.I.: 25.2 Stimulation was treated in the presence of 0.1 uM Rosiglitazone Maleate. Inhibition was treated in the presence of 1.0 uM Rosiglitazone Maleate. Day 1: Plated cells and allowed cells to adhere. Day 2: Changed medium to Initiation medium containing the compounds or controls. Day 5: Changed medium to Adipocyte medium with the compounds. Day 8: Changed medium to Adipocyte medium with the compounds. Day 11: Changed medium to Adipocyte medium with the compounds. Day 13: Cells were washed with PBS and lysed with the lysis buffer. Reagent B was added to each well and the cells were incubated at 37° C. for 2 hours. Aliquots of the lysates were diluted with PBS, then Reagent A was added to each well. The optical density was read at 540 nm after 15 minutes. The reagent measures the amount of glycerol liberated from triglyceride. Data were analyzed using a one-way ANOVA and significant means were tested by Bonferroni multiple comparison test using Instat software. Cell culture, treatment, and differentiation assay was performed by Zen-Bio, RTF, NC. Human subcutaneous preadipocytes, lot number: were cultured in 96-well plates. The donor information is as follows: • Lot#: SL0029 • Gender: Female (all lots) […] ([…]) Human subcutaneous preadipocytes were cultured in 96-well plates. Day 1: Plated cells and allowed cells to adhere. Day 2: Changed medium to Differentiation medium containing the compounds or controls. (0.1 uM Rosi for stimulation or 1 uM Rosi for inhibition) Day 9: Changed medium to Adipocyte medium plus compounds. Day 12: Changed medium to Adipocyte medium plus compounds. Day 16: Cells were washed with PBS and lysed with the lysis buffer. […] The optical density was read at 540 nm after 15 minutes. […]

| Compound | human adipocyte generation (after treatment with resveratrol, FIG. 2 legend) | adipogenesis |
| --- | --- | --- |
| Oc1ccc(C=Cc2cc(O)cc(O)c2)cc1 [resveratrol] | decrease in human adipocyte generation | effective in reducing adipogenesis |
| conjugated linoleic acid |  | effective in reducing adipogenesis |
